Data as given in patent US10227331B2 (priority 2015, dated 2019).

How the values were obtained:
IMP-1 = IMP-1 (Serratia marcescens, UniProt P52699); test: biochemical; type: biochemical; settings: CCF2-FA substrate, 2 hours at 25° C; read-out: IMP-1 IC50
Summary of the method: (§1)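 IC50 values derive from 4-parameter fits of percent inhibition against inhibitor concentration on semi-log axes. Activity was monitored by fluorescence with the CCF2-FA substrate after a 2-hour, 25° C incubation of compound, enzyme and substrate.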

NDM-1 = NDM-1 (Klebsiella pneumoniae, UniProt C7C422); test: biochemical; type: biochemical; settings: CCF2-FA substrate, 2 hours at 25° C; read-out: NDM-1 IC50
Summary of the method: as §1

VIM-1 = VIM-1 (Pseudomonas aeruginosa (strain ATCC 15692 / DSM 22644 / CIP 104116 / JCM 14847 / LMG 12228 / 1C / PRS 101 / PAO1), UniProt A0A0F7KYQ8); test: biochemical; settings: CCF2-FA substrate, 2 hours at 25° C
Summary of the method: as §1

[1] = test system: Klebsiella pneumoniae expressing VIM-1 (IHMA599644); type: cell-based; settings: VIM-1 (IHMA599644), with imipenem 1 μg/ml, 95% inhibition of bacterial growth
Summary of the method: (§2)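 Restoration of imipenem susceptibility (1 μg/ml imipenem) was judged by absorbance after 22–24 h at 35° C. Test compound was added to bacteria suspended 1:100 in 1.1× CAMHB from overnight blood-agar cultures.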

[2] = test system: Escherichia coli expressing NDM-1 (CLB30005, CLB30016); type: cell-based; settings: NDM-1 (CLB30016), with imipenem 1 μg/ml, 95% inhibition of bacterial growth
Summary of the method: as §2

[3] = test system: Serratia marcescens expressing IMP-1 (CL5741); type: cell-based; settings: IMP-1 (CL5741), with imipenem 1 μg/ml, 95% inhibition of bacterial growth
Summary of the method: as §2

[4] = test system: P. aeruginosa expressing IMP-1, efflux+ (MB9798); type: cell-based, Pseudomonas aeruginosa; settings: for P. aeruginosa expressing IMP-1, efflux+ (MB9798) MITC95: imipenem at 2 μg/mL, in the presence of a class A, C, D serine β-lactamase inhibitor closely related to relebactam; for Efflux ratio: ratio MITC95 PA_9798/MITC95 PA_9799
From the text: (§3) The strain background is Pseudomonas aeruginosa PAO1.

[5] = test system: P. aeruginosa expressing IMP-1, efflux− (MB9799); test: Efflux: concentration of MBL inhibitor which restores susceptibility to imipenem; type: cell-based, Pseudomonas aeruginosa; settings: imipenem at 2 μg/mL, in the presence of a class A, C, D serine β-lactamase inhibitor closely related to relebactam
From the text: as §3

Chain of NDM-1 (C7C422 whole entry, looked up, species assumed): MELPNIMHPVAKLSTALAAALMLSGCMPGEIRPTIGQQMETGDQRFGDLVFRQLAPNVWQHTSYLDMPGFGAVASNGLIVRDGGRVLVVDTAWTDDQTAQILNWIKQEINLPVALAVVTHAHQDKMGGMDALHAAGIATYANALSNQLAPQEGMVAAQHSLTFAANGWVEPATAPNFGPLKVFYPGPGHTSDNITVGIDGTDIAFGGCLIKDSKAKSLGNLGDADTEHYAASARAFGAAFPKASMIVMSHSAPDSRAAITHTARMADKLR
Chain of IMP-1 (P52699 whole entry, looked up, species assumed): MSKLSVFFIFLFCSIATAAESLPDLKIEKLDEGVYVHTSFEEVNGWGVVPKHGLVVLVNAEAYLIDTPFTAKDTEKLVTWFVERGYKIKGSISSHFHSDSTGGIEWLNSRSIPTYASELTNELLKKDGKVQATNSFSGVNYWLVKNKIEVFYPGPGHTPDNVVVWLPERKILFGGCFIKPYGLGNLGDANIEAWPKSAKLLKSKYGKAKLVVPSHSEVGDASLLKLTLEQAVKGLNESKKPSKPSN

## NCCNC(=O)c1ccccc1-c1ccc(S(=O)(=O)CCN)c(S(N)(=O)=O)c1-c1nn[nH]n1 [Example 342, N-(2-Aminoethyl)-4′-((2-aminoethyl)sulfonyl)-3′-sulfamoyl-2′-(2H-tetrazol-5-yl)-[1,1′-biphenyl]-2-carboxamide]
IMP-1
  IC50: 34200 pM
NDM-1
  IC50: 15300 pM
VIM-1
  IC50: 2840 pM
[1]
  Klebsiella pneumoniae MITC95: 1.563 µM
[2]
  Escherichia coli MITC95: 1.563 µM
[3]
  Serratia marcescens MITC95: 3.125 µM
[4]
  P. aeruginosa expressing IMP-1, efflux+ (MB9798) MITC95: 12.5 µM
  Efflux ratio: 4.00
[5]
  P. aeruginosa expressing IMP-1, efflux− (MB9799) MITC95: 3.125 µM

## NS(=O)(=O)c1c(S(=O)(=O)C2CNC2)ccc(-c2ccnc(N3CCNC3=O)c2)c1-c1nnn[nH]1 [Example 343, 6-(Azetidin-3-ylsulfonyl)-3-(2-(2-oxoimidazolidin-1-yl)pyridin-4-yl)-2-(1H-tetrazol-5-yl)benzenesulfonamide]
IMP-1
  IC50: 1890 pM
NDM-1
  IC50: 510 pM
VIM-1
  IC50: 198 pM
[1]
  Klebsiella pneumoniae MITC95: 6.25 µM
[2]
  Escherichia coli MITC95: 3.125 µM
[3]
  Serratia marcescens MITC95: 3.125 µM
[4]
  P. aeruginosa expressing IMP-1, efflux+ (MB9798) MITC95: 25 µM
  Efflux ratio: 15.99
[5]
  P. aeruginosa expressing IMP-1, efflux− (MB9799) MITC95: 1.563 µM

## Nc1nnc(-c2cccc(-c3ccc(S(=O)(=O)C4CNC4)c(S(N)(=O)=O)c3-c3nnn[nH]3)c2)o1 [Example 344, 3′-(5-Amino-1,3,4-oxadiazol-2-yl)-4-(azetidin-3-ylsulfonyl)-2-(1H-tetrazol-5-yl)-[1,1′-biphenyl]-3-sulfonamide]
IMP-1
  IC50: 1700 pM
NDM-1
  IC50: 470 pM
VIM-1
  IC50: 268 pM
[1]
  Klebsiella pneumoniae MITC95: 6.25 µM
[2]
  Escherichia coli MITC95: 3.125 µM
[3]
  Serratia marcescens MITC95: 3.125 µM
[4]
  P. aeruginosa expressing IMP-1, efflux+ (MB9798) MITC95: 25 µM
  Efflux ratio: 15.99
[5]
  P. aeruginosa expressing IMP-1, efflux− (MB9799) MITC95: 1.563 µM

## NCCS(=O)(=O)c1ccc(-c2cccc(-n3ccnc3)c2)c(-c2nnn[nH]2)c1S(N)(=O)=O [Example 345, 4-((2-Aminoethyl)sulfonyl)-3′-(1H-imidazol-1-yl)-2-(1H-tetrazol-5-yl)-[1,1′-biphenyl]-3-sulfonamide]
IMP-1
  IC50: 857 pM
NDM-1
  IC50: 1960 pM
VIM-1
  IC50: 434 pM
[1]
  Klebsiella pneumoniae MITC95: 3.125 µM
[2]
  Escherichia coli MITC95: 0.7813 µM
[3]
  Serratia marcescens MITC95: 1.563 µM
[4]
  P. aeruginosa expressing IMP-1, efflux+ (MB9798) MITC95: 25 µM
  Efflux ratio: 32.00
[5]
  P. aeruginosa expressing IMP-1, efflux− (MB9799) MITC95: 0.7813 µM

## NCCS(=O)(=O)c1ccc(-c2cccc(-c3c[nH]c(N)n3)c2)c(-c2nnn[nH]2)c1S(N)(=O)=O [Example 346, 3′-(2-Amino-1H-imidazol-4-yl)-4-((2-aminoethyl)sulfonyl)-2-(1H-tetrazol-5-yl)-[1,1′-biphenyl]-3-sulfonamide]
IMP-1
  IC50: 1970 pM
NDM-1
  IC50: 518 pM
VIM-1
  IC50: 931 pM
[1]
  Klebsiella pneumoniae MITC95: 1.563 µM
[2]
  Escherichia coli MITC95: 0.3906 µM
[3]
  Serratia marcescens MITC95: 1.563 µM
[4]
  P. aeruginosa expressing IMP-1, efflux+ (MB9798) MITC95: 6.25 µM
  Efflux ratio: 8.00
[5]
  P. aeruginosa expressing IMP-1, efflux− (MB9799) MITC95: 0.7813 µM

## NCCS(=O)(=O)c1ccc(-c2cccc3c2NC(=O)C3O)c(-c2nnn[nH]2)c1S(N)(=O)=O (centres unmarked) [Example 347, 6-((2-Aminoethyl)sulfonyl)-3-(3-hydroxy-2-oxoindolin-7-yl)-2-(1H-tetrazol-5-yl)benzenesulfonamide]
IMP-1
  IC50: 1340 pM
NDM-1
  IC50: 1730 pM
VIM-1
  IC50: 933 pM
[1]
  Klebsiella pneumoniae MITC95: 6.25 µM
[2]
  Escherichia coli MITC95: 3.125 µM
[3]
  Serratia marcescens MITC95: 1.563 µM
[4]
  P. aeruginosa expressing IMP-1, efflux+ (MB9798) MITC95: 12.5 µM
  Efflux ratio: 4.00
[5]
  P. aeruginosa expressing IMP-1, efflux− (MB9799) MITC95: 3.125 µM

## C[C@@H](N)CS(=O)(=O)c1ccc(-c2cccc3[nH]c(C(=O)O)nc23)c(-c2nn[nH]n2)c1S(N)(=O)=O [Example 348, Ammonium (R)-4-(4-((2-aminopropyl)sulfonyl)-3-sulfamoyl-2-(2H-tetrazol-5-yl)phenyl)-1H-benzo[d]imidazole-2-carboxylate]
IMP-1
  IC50: 847 pM
NDM-1
  IC50: 163 pM
VIM-1
  IC50: 478 pM
[1]
  Klebsiella pneumoniae MITC95: 6.25 µM
[2]
  Escherichia coli MITC95: 3.125 µM
[3]
  Serratia marcescens MITC95: 3.125 µM
[4]
  P. aeruginosa expressing IMP-1, efflux+ (MB9798) MITC95: 25 µM
  Efflux ratio: 8.00
[5]
  P. aeruginosa expressing IMP-1, efflux− (MB9799) MITC95: 3.125 µM

## Nc1nc2c(-c3ccc(S(=O)(=O)[C@@H]4CN[C@H](CO)C4)c(S(N)(=O)=O)c3-c3nn[nH]n3)cccc2s1 [Example 349, 3-(2-Aminobenzo[d]thiazol-4-yl)-6-(((3 S,5S)-5-(hydroxymethyl)pyrrolidin-3-yl)sulfonyl)-2-(2H-tetrazol-5-yl)benzenesulfonamide]
IMP-1
  IC50: 220 pM
NDM-1
  IC50: 65.9 pM
VIM-1
  IC50: 452 pM
[1]
  Klebsiella pneumoniae MITC95: 3.125 µM
[2]
  Escherichia coli MITC95: 3.125 µM
[3]
  Serratia marcescens MITC95: 1.563 µM
[4]
  P. aeruginosa expressing IMP-1, efflux+ (MB9798) MITC95: 1.563 µM
  Efflux ratio: 1.00
[5]
  P. aeruginosa expressing IMP-1, efflux− (MB9799) MITC95: 1.563 µM

## Nc1nc2c(-c3ccc(S(=O)(=O)[C@@H]4CN[C@H](CO)C4)c(S(N)(=O)=O)c3-c3nn[nH]n3)cccc2[nH]1 [Example 350, 3-(2-Amino-1H-benzo[d]imidazol-4-yl)-6-(((3S,5S)-5-(hydroxymethyl)pyrrolidin-3-yl)sulfonyl)-2-(2H-tetrazol-5-yl)benzenesulfonamide]
IMP-1
  IC50: 982 pM
NDM-1
  IC50: 250 pM
VIM-1
  IC50: 674 pM
[1]
  Klebsiella pneumoniae MITC95: 3.125 µM
[2]
  Escherichia coli MITC95: 0.7813 µM
[3]
  Serratia marcescens MITC95: 1.563 µM
[4]
  P. aeruginosa expressing IMP-1, efflux+ (MB9798) MITC95: 1.563 µM
  Efflux ratio: 1.00
[5]
  P. aeruginosa expressing IMP-1, efflux− (MB9799) MITC95: 1.563 µM

## NC[C@H](CO)S(=O)(=O)c1ccc(-c2cccc3nc(N)[nH]c23)c(-c2nn[nH]n2)c1S(N)(=O)=O [Example 351, (R)-3-(2-amino-1H-benzo[d]imidazol-7-yl)-6-((1-amino-3-hydroxypropan-2-yl)sulfonyl)-2-(1H-tetrazol-5-yl)benzenesulfonamide]
IMP-1
  IC50: 1360 pM
NDM-1
  IC50: 200 pM
VIM-1
  IC50: 711 pM
[1]
  Klebsiella pneumoniae MITC95: 1.563 µM
[2]
  Escherichia coli MITC95: 0.7813 µM
[3]
  Serratia marcescens MITC95: 0.7813 µM
[4]
  P. aeruginosa expressing IMP-1, efflux+ (MB9798) MITC95: 0.7813 µM
  Efflux ratio: 1.00
[5]
  P. aeruginosa expressing IMP-1, efflux− (MB9799) MITC95: 0.7813 µM

## NC[C@@H](O)CS(=O)(=O)c1ccc(-c2cccc3sc(N)nc23)c(-c2nn[nH]n2)c1S(N)(=O)=O [Example 352, (R)-6-((3-amino-2-hydroxypropyl)sulfonyl)-3-(2-aminobenzo[d]thiazol-4-yl)-2-(2H-tetrazol-5-yl) benzenesulfonamide]
IMP-1
  IC50: 145 pM
NDM-1
  IC50: 65.8 pM
VIM-1
  IC50: 255 pM
[1]
  Klebsiella pneumoniae MITC95: 1.563 µM
[2]
  Escherichia coli MITC95: 0.7813 µM
[3]
  Serratia marcescens MITC95: 0.7813 µM
[4]
  P. aeruginosa expressing IMP-1, efflux+ (MB9798) MITC95: 0.3906 µM
[5]
  P. aeruginosa expressing IMP-1, efflux− (MB9799) MITC95: 0.7813 µM

## NC[C@H](O)CS(=O)(=O)c1ccc(-c2cccc3[nH]cnc23)c(-c2nn[nH]n2)c1S(N)(=O)=O [Example 353, (S)-6-((3-amino-2-hydroxypropyl)sulfonyl)-3-(1H-benzo[d]imidazol-4-yl)-2-(2H-tetrazol-5-yl) benzenesulfonamide]
IMP-1
  IC50: 392 pM
NDM-1
  IC50: 185 pM
VIM-1
  IC50: 202 pM
[1]
  Klebsiella pneumoniae MITC95: 3.125 µM
[2]
  Escherichia coli MITC95: 1.563 µM
[3]
  Serratia marcescens MITC95: 1.563 µM
[4]
  P. aeruginosa expressing IMP-1, efflux+ (MB9798) MITC95: 0.7813 µM
  Efflux ratio: 1.00
[5]
  P. aeruginosa expressing IMP-1, efflux− (MB9799) MITC95: 0.7813 µM

## NCCCS(=O)(=O)c1ccc(-c2cccc3[nH]cnc23)c(-c2nn[nH]n2)c1S(N)(=O)=O [Example 354, 6-((3-aminopropyl)sulfonyl)-3-(1H-benzo[d]imidazol-7-yl)-2-(1H-tetrazol-5-yl) benzenesulfonamide]
IMP-1
  IC50: 275 pM
NDM-1
  IC50: 226 pM
VIM-1
  IC50: 162 pM
[1]
  Klebsiella pneumoniae MITC95: 1.563 µM
[2]
  Escherichia coli MITC95: 0.7813 µM
[3]
  Serratia marcescens MITC95: 0.7813 µM
[4]
  P. aeruginosa expressing IMP-1, efflux+ (MB9798) MITC95: 0.7813 µM
  Efflux ratio: 1.00
[5]
  P. aeruginosa expressing IMP-1, efflux− (MB9799) MITC95: 0.7813 µM

## C[C@H](N)CS(=O)(=O)c1ccc(-c2cccc3[nH]cnc23)c(-c2nn[nH]n2)c1S(N)(=O)=O [Example 355]
IMP-1
  IC50: 327 pM
NDM-1
  IC50: 164 pM
VIM-1
  IC50: 165 pM
[1]
  Klebsiella pneumoniae MITC95: 3.125 µM
[2]
  Escherichia coli MITC95: 1.563 µM
[3]
  Serratia marcescens MITC95: 1.563 µM
[4]
  P. aeruginosa expressing IMP-1, efflux+ (MB9798) MITC95: 3.125 µM
  Efflux ratio: 2.00
[5]
  P. aeruginosa expressing IMP-1, efflux− (MB9799) MITC95: 1.563 µM
